Assay results taken from patent US8785374B2, “Inhibitors of mammalian tight junction opening” (Alba Therapeutics Corporation, priority 2007, dated 2014).
No end group written: not given here.

How the values were obtained:
[1] = tested on: CaCo2 monolayers (tight junctions); test: Inhibition of agonist-induced Lucifer Yellow flux through CaCo2 monolayers; details: inhibition of the increase in Lucifer Yellow permeability induced by SEQ ID NO:70 (FCIGRL); CaCo2 monolayers
Text: (§1) Measurement of the Inhibition of the Decrease in Trans Epithelial Electric Resistance (TEER) and Epithelial Flux of a Fluorescent Marker Lucifer Yellow
(§2) Antagonists of tight junctions can be identified by their ability to prevent or decrease the enhancement of the flux of compounds (e.g. Lucifer Yellow) through the monolayer induced by agonists of tight junctions (e.g., SEQ ID NO: 70). Antagonists of tight junctions can also be identified by their ability to prevent the decrease in TEER induced by agonists of tight junctions (e.g., SEQ ID NO: 70).
(§3) Tight junction antagonists can be identified using the following method:
(§4) Prepare Modified Hank's Balanced Salt Solution (MHBSS) by obtaining IL bottle of HBSS removing 10 ml of HBSS and replacing it with 10 ml HEPES buffer pH 7.0. Adjust pH to 7.4±0.1 using concentrated NaOH (10N).
(§5) Remove Caco-2 cells from incubator, grown on 12-well, […], polycarbonate Transwell® filters (Corning) and record passage number, date cells seeded and age in days.
(§6) Aspirate cell culture medium from both the apical (AP) and basolateral (BL) compartments, replacing with 0.5 ml and 1.5 ml of MHBSS, respectively. Incubate cells at 37° C. for 30 minutes.
(§7) Prepare a stock solution of the Antagonist Pretreatment Solution by dissolving the appropriate amount of antagonist in MHBSS. Vortex or sonicate the solution until it is clear then adjust pH to 7.4±0.1 using 1N NaOH. Preincubate each filter for 30 min with these solutions at 37° C. and 50 RPM.
(§8) Prepare stock solutions of Antagonist Treatment Solution by dissolving appropriate amounts of antagonist and agonist (for example, a peptide agonist such as a peptide having the sequence FCIGRL (SEQ ID NO: 70)) in 7.5 mM Lucifer Yellow solution in MHBSS. Vortex or sonicate the solution until it is clear then adjust pH to 7.4±0.1 using 1N NaOH.
(§9) Aspirate Antagonist Pretreatment Solution from the apical compartment of each filter (n=3 per condition) and replace with 0.5 ml of control and test solutions.
(§10) Place all plates into incubator set at 37° C. (±0.2), 50 RPM (±5) for a total of 180 minutes.
At t=60, 120 and 180 minutes remove 100 μl from each basolateral compartment and place it in a 96-well plate for Lucifer Yellow analysis, replace with 100 μl of HBSS.
Make a Lucifer Yellow standard curve with the following dilutions (7500 μM, 3750 μM, 750 μM, 375 μM, 75 μM, 37.5 μM, 7.5 μM, 3.75 μM, 0.75 μM) and pipette 100 μL of each into a 96-well plate except for the first three standards mentioned above which require a 1:10 dilution prior to transferring to the 96-well plate.
At t=0 make 1:10 dilutions of each starting Antagonist Treatment Solution mentioned above and pipette 100 μL of each into a 96-well plate.
At t=180 make 1:10 dilutions of Antagonist Treatment Solution from the apical compartment of each filter and pipette 100 μL of each into the 96-well plate.
Analyze each 96-well plate in a Tecan Spectra Fluor Plus using Magellan at 485 and 535 nm.
(§11) Cells: Caco-2 cells passage 40-60 grown on Transwell® plates for 21-28 days
(§12) SEQ ID NO: 70 is a 6-mer peptide tight junction agonist having the sequence FCIGRL. See US patent publication US 2005/0059593 A1. In the following tables + indicates attenuation of the effects of the tight junction agonist were observed and − indicates no attenuation of the effects of the tight junction agonist were observed.

[2] = tested on: CaCo2 monolayers (tight junctions); test: Inhibition of agonist-induced decrease in trans epithelial electric resistance (TEER) of CaCo2 monolayers; details: inhibition of the reduction in TEER induced by SEQ ID NO:70 (FCIGRL); CaCo2 monolayers
Text: as §1, §2, §3, §4, §5, §6
Using the MilliCell®-ERS instrument (Millipore), measure and record the transepithelial electrical resistance (TEER) across each filter and record.
as §7, §8, §9, §10
At t=30, 60, 120 and 180 minutes, measure and record the transepithelial electrical resistance (TEER) across each filter using the MilliCell-ERS instrument.
as §11, §12

| Substance | Reduced LY Permeability [1] | Prevented TEER Reduction [2] |
| --- | --- | --- |
| His-Pro-Gly (HPG; Tight junction antagonist) [SEQ ID NO: 18] | + | + |
| Ile-Pro-Gly (IPG; Tight junction antagonist) [SEQ ID NO: 31] | + | + |
| Leu-Pro-Gly (LPG; Tight junction antagonist) [SEQ ID NO: 25] | + | + |
| Leu-Val-Gln-Pro-Gly (LVQPG; Tight junction antagonist) [SEQ ID NO: 4] | + | + |
| Lys-Pro-Gly (KPG; Tight junction antagonist) [SEQ ID NO: 24] | + | + |
| Met-Pro-Gly (MPG; Tight junction antagonist) [SEQ ID NO: 26] | + | + |
| Phe-Pro-Gly (FPG; Tight junction antagonist) [SEQ ID NO: 21] | + | + |
| Pro-Pro-Gly (PPG; Tight junction antagonist) [SEQ ID NO: 33] | − | − |
| Ser-Pro-Gly (SPG; Tight junction antagonist) [SEQ ID NO: 28] | + | + |
| Thr-Pro-Gly (TPG; Tight junction antagonist) [SEQ ID NO: 30] | + | − |
| Trp-Pro-Gly (WPG; Tight junction antagonist) [SEQ ID NO: 32] | + | + |
| Tyr-Pro-Gly (YPG; Tight junction antagonist) [SEQ ID NO: 29] | + | + |
| VLVQPG [SEQ ID NO: 3] | + | + |
| Val-Gln-Pro-Gly (VQPG; Tight junction antagonist) [SEQ ID NO: 5] | + | + |
| Val-Pro-Gly (VPG; Tight junction antagonist) [SEQ ID NO: 34] | + | − |
